Experimental data: article PMC6222820, “Synthesis of New Triarylpyrazole Derivatives Possessing Terminal Sulfonamide Moiety and Their Inhibitory Effects on PGE2 and Nitric Oxide Productions in Lipopolysaccharide-Induced RAW 264.7 Macrophages” (Molecules : A Journal of Synthetic Chemistry and Natural …, 2018)
Entries after “also recorded” stand apart in the source; their conditions may differ.

Experiments:
[1] = test system: LPS-induced RAW 264.7 macrophages; assay: Nitric oxide (NO) production inhibition in LPS-induced RAW 264.7 macrophages (nitrite determination); type: cell-based; settings: Mus musculus; for inhibition at 1 µM: RAW264.7, 1 µM; for inhibition at 1 µM / inhibition at 5 µM / inhibition at 10 µM: LPS-induced RAW 264.7 macrophages; for inhibition at 5 µM: RAW264.7, 5 µM; for inhibition at 10 µM: RAW264.7, 10 µM; for IC50: RAW264.7, nitric oxide production, means ± SD of three independent experiments, read-out: NO (IC50)
Experimental: The ability of a certain molecule to inhibit the production of inflammatory mediator(s) is one of successful approach to treatment both chronic and acute inflammation.
(§1) Cell culture and sample treatment were performed as reported in the literature. The 3-(4,5-dimethylthiazol-2-yl)-2,5-diphenyltetrazolium bromide (MTT) assay for cell viability followed the procedure previously described in the literature. Nitrite determination was carried as described in the literature, and the PGE2 assay was carried as previously described.

[2] = test system: inducible nitric oxide synthase (iNOS); assay: LPS-induced iNOS protein expression (SDS-PAGE / immunoblot of cellular lysates); type: cell-based; settings: 20 µM; pretreatment 1 h, then LPS (1 μg/mL) 24 h; β-actin reference
Experimental: As a result of their activity against both NO and PGE2 production and low cellular toxicity, compounds 1b, 1d, 1g, 2a, and 2c were tested for their inhibitory effect on the expression of both iNOS and COX-2. The cellular lysates were prepared from the with- and without-pretreatment tested compounds (5, 10, 20 μM) for one hour and then with LPS (1 μg/mL) for 24 h, using β-actin as a reference. […] Compound 1g might express its inhibitory effect on NO production mainly through inhibition of iNOS protein expression and partially through inhibition of iNOS enzyme activity.
Figure 3 Inhibitory activity of compounds 1b, 1d, 1g, 2a, and 2c on inducible nitric oxide synthase (iNOS) and Cyclooxygenase 2 (COX-2) Cellular lysates were prepared from the with/without pretreatment tested compound (5, 10, and 20 μM) for one hour and then with LPS (1 μg/mL) for 24 h. Total cellular proteins were resolved by sodium dodecyl sulphate-polyacrylamide gel electrophoresis (SDS-PAGE), transferred to Polyvinylidene fluoride (PVDF) membranes, and detected with specific iNOS and COX-2 antibodies. β-actin was used as an internal control.

[3] = target: T1, iNOS (Mus musculus, UniProt P29477); assay: iNOS enzyme activity in LPS-pretreated cells (Griess reaction); type: cell-based; settings: 5, 10, or 20 μM for 12 h after LPS (1 µg/mL) 12 h
T1 construct: endogenous in cells; host or cells: RAW 264.7 macrophages, LPS-stimulated
Experimental: Figure 4 Effect of compounds 1b, 1d, 1g, 2a, and 2c on iNOS activity. Following pretreatment with lipopolysaccharide (LPS, 1 µg/mL) for 12 h and wash with phosphate buffer solution (PBS), cells were treated with 1g (5, 10, or 20 μM) for 12 h N^6-(1-Iminoethyl)-L-lysine. (L-NIL) (40 μM) was used as the positive control in the assay. Levels of NO in culture media were quantified using the Griess reaction assay. Data are presented as the means ± SD of three independent experiments. # p < 0.05 versus the control cells; *** p < 0.001 versus LPS-stimulated cells; * statistical significances were compared using ANOVA and Dunnett’s post hoc test.

[4] = MTT assay for cell viability / cytotoxicity; type: cell-based; settings: mouse, RAW 264.7 macrophages, means ± SD of three independent experiments
Experimental: In addition to NO inhibition, the cytotoxic activity of compounds 1a–i, 2a–i, 3a–h, and 4a–h in RAW 264.7 macrophages were measured using the 3-(4,5-dimethylthiazol-2-yl)-2,5-diphenyltetrazolium bromide (MTT) assay to check whether the effects on the production of NO was caused by nonspecific cytotoxicity.
as §1

[5] = test system: LPS-induced RAW 264.7 macrophages; assay: PGE2 production inhibition in LPS-induced RAW 264.7 macrophages; type: cell-based; settings: Mus musculus, means ± SD of three independent experiments; for inhibition at 1 µM: RAW264.7, 1 μM; for inhibition at 5 µM: RAW264.7, 5 μM; for inhibition at 10 µM: RAW264.7, 10 μM; for IC50: RAW264.7, LPS-induced RAW 264.7 macrophages
Experimental: Compounds 1b, 1g, 2a, and 2c were able to inhibit more than 50% of the prostaglandin production at a dose 5 μM. The five compounds were able to reduce PGE2 production by over 75% at a dose of 10 μM.
as §1

SMILES: COc1cccc(-c2nn(-c3ccccc3)cc2-c2ccnc(NCCNS(=O)(=O)c3ccc(C(F)(F)F)cc3)c2)c1 [Compound 1g, N-(2-((4-(3-(3-Methoxyphenyl)-1-phenyl-1H-pyrazol-4-yl)pyridin-2-yl)amino)ethyl)-4-(trifluoromethyl)benzenesulfonamide]
- inhibition at 1 µM [1]: 10.98 ± 0.07%
- inhibition at 5 µM [1]: 23.6 ± 0.54%
- inhibition at 10 µM [1]: 60.8 ± 1.75%
- IC50 [1]: 8.55 ± 0.14 µM
- Inhibition of iNOS expression [2]: complete inhibition; also recorded: potential iNOS inhibitory effect
- Inhibition of iNOS enzyme activity [3]: slightly inhibited iNOS enzyme activity in a dose-dependent manner
- IC50 [4]: 261.6 ± 1.57 µM
- inhibition at 1 µM [5]: 19.9 ± 0.89%
- inhibition at 5 µM [5]: > 50%
- inhibition at 10 µM [5]: 79.3 ± 2.19%
- IC50 [5]: 4.55 ± 0.39 µM

SMILES: COc1cccc(-c2nn(-c3ccccc3)cc2-c2ccnc(NCCCNS(=O)(=O)c3ccccc3)c2)c1 [Compound 2a, N-(3-((4-(3-(3-Methoxyphenyl)-1-phenyl-1H-pyrazol-4-yl)pyridin-2-yl)amino)propyl)benzenesulfonamide]
- inhibition at 1 µM [1]: 0.17 ± 0.03%
- inhibition at 5 µM [1]: 30.2 ± 0.27%
- inhibition at 10 µM [1]: 62.8 ± 3.25%
- IC50 [1]: 8.04 ± 0.09 µM
- melting point: 119 to 120 °C
- IC50 [4]: 346 ± 4.21 µM
- inhibition at 1 µM [5]: 31.1 ± 1.14%
- inhibition at 5 µM [5]: > 50%
- inhibition at 10 µM [5]: 76.9 ± 4.99%
- IC50 [5]: 4.87 ± 0.44 µM

SMILES: COc1cccc(-c2nn(-c3ccccc3)cc2-c2ccnc(NCCCNS(=O)(=O)c3ccc(Cl)cc3)c2)c1 [Compound 2c, 4-Chloro-N-(3-((4-(3-(3-methoxyphenyl)-1-phenyl-1H-pyrazol-4-yl)pyridin-2-yl)amino)propyl)benzenesulfonamide]
- inhibition at 1 µM [1]: 0.02 ± 0.01%
- inhibition at 5 µM [1]: 24.7 ± 0.81%
- inhibition at 10 µM [1]: 59.1 ± 0.93%
- IC50 [1]: 8.68 ± 0.22 µM
- melting point: 98 to 100 °C
- IC50 [4]: 289.9 ± 1.87 µM
- inhibition at 1 µM [5]: 17.5 ± 1.51%
- inhibition at 5 µM [5]: > 50%
- inhibition at 10 µM [5]: 81.4 ± 2.94%
- IC50 [5]: 4.68 ± 0.37 µM

SMILES: COc1cccc(-c2nn(-c3ccccc3)cc2-c2ccnc(NCCCNS(=O)(=O)c3ccc(C)cc3)c2)c1 [Compound 2f, N-(3-((4-(3-(3-Methoxyphenyl)-1-phenyl-1H-pyrazol-4-yl)pyridin-2-yl)amino)propyl)-4-methylbenzenesulfonamide]
- inhibition at 1 µM [1]: 4.36 ± 0.04%
- inhibition at 5 µM [1]: 19.8 ± 0.96%
- inhibition at 10 µM [1]: 46.3 ± 3.21%
- IC50 [1]: 9.16 ± 0.27 µM
- melting point: 94 to 96 °C
- IC50 [4]: 323 ± 3.35 µM

SMILES: O=S(=O)(NCCNc1cc(-c2cn(-c3ccccc3)nc2-c2cccc(O)c2)ccn1)c1ccccc1 [Compound 3a, N-(2-((4-(3-(3-Hydroxyphenyl)-1-phenyl-1H-pyrazol-4-yl)pyridin-2-yl)amino)ethyl)benzenesulfonamide]
- inhibition at 1 µM [1]: 4.78 ± 0.03%
- inhibition at 5 µM [1]: 21.5 ± 0.37%
- inhibition at 10 µM [1]: 49 ± 1.1%
- IC50 [1]: 10.3 ± 0.23 µM
- melting point: 100 to 102 °C
- IC50 [4]: 29.8 ± 1.91 µM

SMILES: O=S(=O)(NCCNc1cc(-c2cn(-c3ccccc3)nc2-c2cccc(O)c2)ccn1)c1ccc(Br)cc1 [Compound 3b, 4-Bromo-N-(2-((4-(3-(3-hydroxyphenyl)-1-phenyl-1H-pyrazol-4-yl)pyridin-2-yl)amino)ethyl)benzenesulfonamide]
- inhibition at 1 µM [1]: 15.8 ± 0.16%
- inhibition at 5 µM [1]: 24.4 ± 0.52%
- inhibition at 10 µM [1]: 48.7 ± 1.74%
- IC50 [1]: 10.6 ± 0.51 µM
- melting point: 178 to 180 °C
- IC50 [4]: 24.3 ± 0.41 µM

SMILES: O=S(=O)(NCCNc1cc(-c2cn(-c3ccccc3)nc2-c2cccc(O)c2)ccn1)c1ccc(Cl)cc1 [Compound 3c, 4-Chloro-N-(2-((4-(3-(3-hydroxyphenyl)-1-phenyl-1H-pyrazol-4-yl)pyridin-2-yl)amino)ethyl)benzenesulfonamide]
- inhibition at 1 µM [1]: 6.34 ± 0.06%
- inhibition at 5 µM [1]: 11.7 ± 0.71%
- inhibition at 10 µM [1]: 33.8 ± 0.89%
- IC50 [1]: 15.2 ± 0.17 µM
- melting point: 100 to 102 °C
- IC50 [4]: 22.7 ± 0.3 µM

SMILES: O=S(=O)(NCCNc1cc(-c2cn(-c3ccccc3)nc2-c2cccc(O)c2)ccn1)c1ccc(F)cc1 [Compound 3d, 4-Fluoro-N-(2-((4-(3-(3-hydroxyphenyl)-1-phenyl-1H-pyrazol-4-yl)pyridin-2-yl)amino)ethyl)benzenesulfonamide]
- inhibition at 1 µM [1]: 10.58 ± 0.09%
- inhibition at 5 µM [1]: 18.3 ± 0.26%
- inhibition at 10 µM [1]: 48.2 ± 0.74%
- IC50 [1]: 10.7 ± 0.52 µM
- melting point: 106 to 108 °C
- IC50 [4]: 26.6 ± 0.47 µM

SMILES: Cc1ccc(S(=O)(=O)NCCNc2cc(-c3cn(-c4ccccc4)nc3-c3cccc(O)c3)ccn2)cc1 [Compound 3e, N-(2-((4-(3-(3-Hydroxyphenyl)-1-phenyl-1H-pyrazol-4-yl)pyridin-2-yl)amino)ethyl)-4-methylbenzenesulfonamide]
- inhibition at 1 µM [1]: 7.15 ± 0.04%
- inhibition at 5 µM [1]: 12.4 ± 0.72%
- inhibition at 10 µM [1]: 31.4 ± 0.33%
- IC50 [1]: 16.1 ± 0.72 µM
- melting point: 114 to 116 °C
- IC50 [4]: 32.5 ± 0.75 µM

SMILES: O=S(=O)(NCCNc1cc(-c2cn(-c3ccccc3)nc2-c2cccc(O)c2)ccn1)c1cccc(F)c1 [Compound 3g, 3-Fluoro-N-(2-((4-(3-(3-hydroxyphenyl)-1-phenyl-1H-pyrazol-4-yl)pyridin-2-yl)amino)ethyl)benzenesulfonamide]
- inhibition at 1 µM [1]: 16.2 ± 0.17%
- inhibition at 5 µM [1]: 19.1 ± 0.89%
- inhibition at 10 µM [1]: 37.7 ± 0.85%
- IC50 [1]: 21.42 ± 0.17 µM
- melting point: 146 to 148 °C
- IC50 [4]: 28.7 ± 0.74 µM

SMILES: O=S(=O)(NCCCNc1cc(-c2cn(-c3ccccc3)nc2-c2cccc(O)c2)ccn1)c1ccccc1 [Compound 4a, N-(3-((4-(3-(3-Hydroxyphenyl)-1-phenyl-1H-pyrazol-4-yl)pyridin-2-yl)amino)propyl)benzenesulfonamide]
- inhibition at 1 µM [1]: 11.11 ± 0.1%
- inhibition at 5 µM [1]: 24.1 ± 0.56%
- inhibition at 10 µM [1]: 59.2 ± 1.31%
- IC50 [1]: 8.86 ± 0.36 µM
- melting point: 154 to 156 °C
- IC50 [4]: 16.6 ± 0.91 µM

SMILES: O=S(=O)(NCCCNc1cc(-c2cn(-c3ccccc3)nc2-c2cccc(O)c2)ccn1)c1ccc(Cl)cc1 [Compound 4c, 4-Chloro-N-(3-((4-(3-(3-hydroxyphenyl)-1-phenyl-1H-pyrazol-4-yl)pyridin-2-yl)amino)propyl)benzenesulfonamide]
- inhibition at 1 µM [1]: 0.86 ± 0.09%
- inhibition at 5 µM [1]: 22 ± 0.42%
- inhibition at 10 µM [1]: 47 ± 1.34%
- IC50 [1]: 13.2 ± 0.52 µM
- melting point: 166 to 168 °C
- IC50 [4]: 18.8 ± 0.68 µM

SMILES: Cc1ccc(S(=O)(=O)NCCCNc2cc(-c3cn(-c4ccccc4)nc3-c3cccc(O)c3)ccn2)cc1 [Compound 4e, N-(3-((4-(3-(3-Hydroxyphenyl)-1-phenyl-1H-pyrazol-4-yl)pyridin-2-yl)amino)propyl)-4-methylbenzenesulfonamide]
- inhibition at 1 µM [1]: 0.69 ± 0.01%
- inhibition at 5 µM [1]: 18.6 ± 0.98%
- inhibition at 10 µM [1]: 59.7 ± 0.7%
- IC50 [1]: 8.82 ± 0.32 µM
- melting point: 158 to 160 °C
- IC50 [4]: 23 ± 0.63 µM

SMILES: O=S(=O)(NCCCNc1cc(-c2cn(-c3ccccc3)nc2-c2cccc(O)c2)ccn1)c1cccc(F)c1 [Compound 4g, 3-Fluoro-N-(3-((4-(3-(3-hydroxyphenyl)-1-phenyl-1H-pyrazol-4-yl)pyridin-2-yl)amino)propyl)benzenesulfonamide]
- inhibition at 5 µM [1]: 29.5 ± 0.86%
- inhibition at 10 µM [1]: 51.1 ± 1.45%
- IC50 [1]: 8.24 ± 0.41 µM
- melting point: 120 to 122 °C
- IC50 [4]: 9.35 ± 0.32 µM

SMILES: CS(=O)(=O)Nc1ccc([N+](=O)[O-])cc1OC1CCCCC1 [NS-398, N-(2-cyclohexyloxy-4-nitrophenyl)methanesulfonamide, reference compound]
- inhibition at 1 µM [5]: 90.53 ± 0.53%
- inhibition at 5 µM [5]: 95.78 ± 0.67%
- inhibition at 10 µM [5]: 98.2 ± 1.5%
- IC50 [5]: 0.00625 µM
